In ChEMBL document CHEMBL3507680, “University of Dundee, Gates Library screen for HepG2 cell viability”:

test: Human HepG2 cell viability assay in 384 well format; assay type: toxicity, cell-based; set-up: dose 125 nL, time 70.5 hour; concentration not given beside the values; details: HepG2 cells, read-out: Inhibition

Row | SMILES | cytotoxicity at 70.5 h
1 | CCN1CCCC(O)(CNCc2ccc3c(c2)OCO3)C1 (stereo not given) | -10.3%
2 | Cn1nc(CN2CCCCC2)c2c1CN(C(=O)c1ccoc1)C2 | 16.5%
3 | COc1ccccc1C1(C(=O)NCCN2CCCCC2)CCOCC1 | 15.9%
4 | O=C(Nc1cccc(CN2CCOC2=O)c1)N1CCOCC1 | -3.32%
5 | CN(Cc1cc[nH]n1)C(=O)c1cccc(CCC(C)(C)O)c1 | -3.42%
6 | O=C(NCCCc1cccs1)N1CCCCC1CCO (stereo not given) | -1.44%
7 | Cn1cc(-c2nc(CN3CCCCC3Cn3cncn3)cs2)cn1 (stereo not given) | 19.3%
8 | COc1cc(CN(Cc2ccccn2)CC(C)C)cc2c1OCO2 | -0.968%
9 | COCC1CN(S(=O)(=O)c2cccs2)Cc2ncnn2C1 (stereo not given) | -12.8%
10 | CN(C)c1cnn(CC(=O)N2CCN(c3ccccc3)CC2)c(=O)c1 | -5.83%
11 | CN(c1ncc(C(=O)Nc2ccccc2)c(N)n1)C1CCCCC1 | -0.75%
12 | Cc1cccc(CN2C[C@@H]3COC[C@]3(CNC(=O)c3cccn3C)C2)n1 | 19.6%
13 | O=S1(=O)CCC(n2nc(Cc3cccs3)nc2-c2cnccn2)C1 (stereo not given) | 0.418%
14 | O=C(NCCc1cccnc1)c1ccc2nccn2c1 | -16.8%
15 | CS(=O)(=O)c1cccc(S(=O)(=O)NC(=O)c2cscn2)c1 | -4.27%
16 | O=C(NC1CCC(C(=O)N2CCSCC2)CC1)N1CCC1 (stereo not given) | -6.98%
17 | OCCOc1ccc(NCc2cc(F)cc3cccnc23)cn1 | -9.9%
18 | Cc1nc(CN2CCCn3cnc(COCC4CC4)c3C2)cs1 | -1.49%
19 | Cc1cccc(-n2nc(CC(C)C)nc2CS(C)(=O)=O)c1 | -2.84%
20 | O=C(c1cc(F)cc(Cl)c1)N1C[C@@H]2CC[C@H](C1)N(Cc1ccccc1)C2 | -3.75%
21 | O=S(=O)(c1cccs1)N1Cc2nc(CN3CCCC3)oc2C1 | -6.48%
22 | Cc1ccc(CNC(=O)NC2CCC(O)CC2)c(N2CCCC2)c1 (stereo not given) | -10.5%
23 | O=C(Nc1cc(-c2cccnc2)no1)C1CCCCC1 | -4.13%

Row | SMILES | cytotoxicity at 70.5 h
24 | O=C(NC1CC1)c1nc(COc2ccc3c(c2)OCO3)no1 | -9.12%
25 | COCCN1CC2(CCN(Cc3ccco3)CC2)c2ccccc21 | 4.26%
26 | Cc1noc([C@]23COC[C@H]2CN(C(C)C)C3)n1 | 1.38%
27 | Cc1cc(C[C@@H]2CCC[C@H]2NCc2ccccc2F)on1 | -2.37%
28 | O=S(=O)(NCC1COCCO1)c1ccc(C2CCCCC2)cc1 (stereo not given) | -4.34%
29 | O=C(NCCCc1ccncc1)C1CCCN(Cc2ccco2)C1 (stereo not given) | 9.58%
30 | O=C(C1CC1)N1CCC(Oc2ccccc2Cl)CC1 | 20.6%
31 | O=C(O)C1CCN(c2nc3c(-c4ccccc4F)csc3c(=O)[nH]2)CC1 | -0.14%
32 | CCc1nc(CN2CCN(C(=O)c3cncnc3CC)CC2)cs1 | -3.73%
33 | Cc1ncsc1CN1CC[C@H]2OCC[C@@]2(C(=O)N2CCCC2)C1 | -1.98%
34 | CC(C)C(C)NC(=O)Nc1cccn(C)c1=O (stereo not given) | 4.29%
35 | Cc1ccncc1-n1cc(CCO)cn1 | -5.86%
36 | COc1cccc(Nc2nc(C3CCCNC3)c3sc(C)c(C)n23)c1 (stereo not given) | -12%
37 | CN(CCc1ccccn1)C(=O)CCC1CCCN(c2ccncc2)C1 (stereo not given) | 0%
38 | CC(C)CC(NC(=O)c1cc(-c2cccn2C)n[nH]1)c1ncnn1C (stereo not given) | -1.67%
39 | CC1CN(C)CCN1C(=O)c1cccn1Cc1cccs1 (stereo not given) | -8.42%
40 | CC(C)N1CCC(NC(=O)NCc2cccnc2)C1 (stereo not given) | -1.38%
41 | COCC(=O)Nc1ccc2c(c1)C1(CCOCC1)CN2CCF | 16.5%
42 | CCOc1ccccc1CN(C)C(=O)CN1C(=O)OC[C@@H]1C(C)C | 15.5%
43 | COc1c(C)cnc(CN(C)C2CCOC3(CCOCC3)C2)c1C (stereo not given) | -19.1%
44 | O=C(c1ccc(O)c(Cl)c1)N1CCC(c2n[nH]c(C3CC3)n2)CC1 | 36.5%
45 | COCC1CCN(c2cc(C3CN(C)CCO3)nc(C)n2)CC1 (stereo not given) | 0.671%
46 | Cc1cc2nc(C(=O)NCc3cccnc3N(C)C)cc(C)n2n1 | 3.6%

Row | SMILES | cytotoxicity at 70.5 h
47 | CC(C)c1nccn1C1CCCN(C(=O)c2ccc3nncn3c2)C1 (stereo not given) | 13%
48 | COC(=O)Cn1c(=O)nc2n1C(=O)N(c1ccc(F)cc1)C2 | -12.5%
49 | CC(Nc1cccc(COCc2ccco2)c1)C(=O)NC(N)=O (stereo not given) | -23%
50 | CC(C)N1CCN(C)CC1c1nnc2ccc(C(=O)N3CCCC3)cn12 (stereo not given) | -11.5%
51 | COc1c(C2CCCN2C(=O)c2c(C)noc2C(C)C)c(C)nn1C (stereo not given) | -4.7%
52 | O=C(C1CC(=O)N(c2ccccc2Br)C1)N1CCC2(CC1)OCCO2 (stereo not given) | -6.47%
53 | O=C(NCC1CC1)C1CN(C(=O)c2cccnc2)CC12CCOCC2 (stereo not given) | -7.11%
54 | COCC1CN(Cc2cccnc2)Cc2nnn(CC3CC3)c21 (stereo not given) | 19.4%
55 | CC(C)=CCC1(CO)CCCN(Cc2cnc(N3CCOCC3)nc2)C1 (stereo not given) | -6.39%
56 | CCc1cccc(NC(=O)CNc2ccccc2OCCC(=O)OC)c1 | -0.0313%
57 | Cc1ccc(CN(C)C(=O)NCC(C)(C)NS(C)(=O)=O)s1 | -3.9%
58 | CCCNC(=O)c1cn(C(C)(C)C)c2ncccc12 | -1.86%
59 | CC(=O)NCCNC(=O)c1cc(Br)c2c(c1)OCCO2 | -11.6%
60 | CN(C)CC(=O)N1CCC2(CCN(Cc3cccc(F)c3)CC2)C1 | -8.05%
61 | Cn1cccc1C(=O)N1CCCC2(CCCN2Cc2cccnc2)C1 (stereo not given) | -5.57%
62 | O=C(O)c1cc(S(=O)(=O)Nc2cc(Cl)ccc2F)cc2c1OCCO2 | 23%
63 | CN(Cc1ccccc1NCc1cscn1)C(=O)c1cccs1 | -3.79%
64 | Cc1cncc(C2CCCN(C(=O)c3scnc3C)C2)n1 (stereo not given) | -3.5%
65 | Cc1nn(C)c(Cl)c1C1CCCN1C(=O)c1cc(Cl)c[nH]1 (stereo not given) | -17.6%
66 | O=C(Nc1cccc(Cn2cccn2)c1)N1CCCC(N2CCCC2)C1 (stereo not given) | -4.22%
67 | Cc1nn(CC(C)C)c(N(C)C)c1CNCc1cccc2c1OCO2 | 10.6%
68 | CC(C)n1cccc1C(=O)N1CC[C@@H](NC(=O)c2ccccn2)[C@H](O)C1 | -14.5%
69 | Cc1ccc(-c2cn[nH]c2C2CCCN(c3ncccn3)C2)cc1 (stereo not given) | 22.7%

Row | SMILES | cytotoxicity at 70.5 h
70 | CN(C)C1CCN(C(=O)NCc2ccc(Cn3cncn3)cc2)CC1 | 14.8%
71 | COc1cccc(C(=O)Nc2n[nH]c(C3CCCO3)n2)c1 (stereo not given) | 22.1%
72 | O=C(CN1CCOC1=O)N1CCc2nnc(-c3ccccc3)n2CC1 | 11.7%
73 | O=C1CN(CCCNC(=O)Nc2cccc(Cl)c2F)CCN1 | -2.99%
74 | CCn1cc2c(n1)CN(CC1CC1)CC2COCC1CC1 (stereo not given) | -15%
75 | CN1C(=O)CC2(CCN(S(=O)(=O)C3CC3)CC2)c2ccccc21 | 7.41%
76 | CC(=O)c1ccc(NC(=O)C(C)Cn2cc(Br)cn2)cc1 (stereo not given) | -5.47%
77 | Cc1ccc(N2CCCC(NCc3ccc(-n4ccnc4)cc3)C2)nn1 (stereo not given) | 17.4%
78 | Cc1cc(C[C@@H]2COC[C@H]2NCc2ccc(C(F)(F)F)cc2)on1 | -5.79%
79 | CCn1nc(C)c2nc(C(C)C)nc(NCc3ccccn3)c21 | 0.25%
80 | CCOC1CCN(C(=O)c2c(Cl)c3ccccc3n2C)CC1 | -7.26%
81 | Cc1cc(CNC(=O)C(c2ccc(F)cc2)N(C)C)n[nH]1 (stereo not given) | 7.79%
82 | O=C(OCc1cccc(F)c1)c1cccc(C(=O)N2CCCC2)n1 | -1.08%
83 | CN(C)CCn1c(=O)oc2ccc(NC(=O)CSc3ccccc3)cc21 | 6.5%
84 | COCCNc1cc(C2CCCNC2)ccn1 (stereo not given) | -7.3%
85 | CC(NC(=O)NCCCn1cccn1)c1cccnc1 (stereo not given) | 18.1%
86 | Cc1cc(C(=O)NC2=NCCS2)c(C)n1-c1ccccn1 | -6.96%
87 | O=C(O)C1(Cc2cc(-c3cccc(F)c3)no2)CCOCC1 | -24%
88 | CN(CCn1cccn1)S(=O)(=O)N1CCCC1c1ccco1 (stereo not given) | -17%
89 | Cc1cccc(OCc2ccc(C(=O)N3N=CCC3(O)C(F)(F)F)o2)c1 (stereo not given) | 9.08%
90 | CCCS(=O)(=O)NCc1cccnc1OCC | -6.74%
91 | Cc1cnc(N2CCc3c(CN(C)Cc4ccco4)cncc3C2)nc1 | -5.82%
92 | Cn1cccc1C(=O)N[C@@H]1CN(CC2CC2)[C@@H]2COC[C@@H]21 | -5.94%

Row | SMILES | cytotoxicity at 70.5 h
93 | CC(C)n1ccnc1CN1CCCN(C(=O)COC2CCCC2)CC1 | -3.66%
94 | CC[C@]12CN3C[C@](C)(CN(C1)C3c1[nH]c(=O)[nH]c(=O)c1C)C2=O (stereo not given in full) | -2.75%
95 | NCC1Cc2cccc(-c3nccc(N4CCC(O)CC4)n3)c2O1 (stereo not given) | 7.11%
96 | Cc1ccc(OCC(O)COC2CCOCC2)c(Br)c1 (stereo not given) | -10.6%
97 | O=C(C1CCCC1)N1CCCC(c2cccc(-n3ccnc3)n2)C1 (stereo not given) | 16.6%
98 | COCCC(=O)N1CCN(CCN(C)C)c2ncccc2C1 | -6.14%
99 | CCn1c(CN(C)C)nnc1C1CCN(Cc2cccc(F)c2F)CC1 | -1.68%
100 | O=c1cc(CNCc2ccc3c(c2)OCO3)nc2ccc(Br)cn12 | 0.0084%
101 | CC(C)(C(N)=O)S(=O)(=O)c1ccc(Br)cc1 | -6.61%
102 | CN(C)CCN1CCOC2(CCN(c3nccs3)CC2)c2ccccc21 | 28.7%
103 | NS(=O)(=O)N1CCc2ccc(NC(=O)Cc3ccc(F)cc3)cc21 | 6.47%
104 | CCN(Cc1cccc(F)c1)c1ccc2nnnn2n1 | -1.32%
105 | CN(C)C(=O)CCS(=O)(=O)Cc1ccn(-c2cccc(F)c2)n1 | 4.33%
106 | CCc1nnc(CN2CCN(C(=O)c3cc4ccccc4[nH]3)CC2)o1 | -3.19%
107 | Cc1ccc(NCc2cc(C#N)ccc2F)cc1-n1nnnc1C | -13.2%
108 | CCCc1cncnc1N1CCCC2(CCC(=O)N(C3CCCC3)C2)C1 (stereo not given) | -9.78%
109 | CCCc1noc(CS(=O)(=O)CC(=O)NC(C)CCC)n1 (stereo not given) | -5.83%
110 | Cc1ncc(C(=O)NCCNc2ncccn2)s1 | -2.18%
111 | Cc1cnc(CN(C)C2CCN(CCc3ccccn3)CC2)cn1 | 14.7%
112 | NS(=O)(=O)CCCC(=O)N1CCC2(CC1)c1ccccc1CC2O (stereo not given) | -4.4%
113 | c1ccc(CCNc2cccc(C3CCCNC3)n2)cc1 (stereo not given) | 6.58%
114 | COc1ccc(CN2CCCC(N3CCCC3)C2)cc1Cn1cncn1 (stereo not given) | 10.6%
115 | Cc1cc(CN2Cc3ccccc3CC2c2nnc(C)o2)no1 (stereo not given) | 1.64%
